# Assay results: ChEMBL document CHEMBL1133907, “Discovery of thioazepinone ligands for Src SH2: from non-specific to specific binding” (Bioorg Med Chem Lett, 2001)
# Legend:
# [1] = target: T1, Proto-oncogene tyrosine-protein kinase Src (Homo sapiens, UniProt P12931); assay: Binding affinity was determined on Src protein tyrosine kinase SH2 domain using scintillation proximity assay (SPA)
# [2] = target: T1, Proto-oncogene tyrosine-protein kinase Src; assay: Binding affinity was determined on Src protein tyrosine kinase SH2 domain using fluorescence polarization assay with 2% DMSO in buffer solution
# [3] = target: T1, Proto-oncogene tyrosine-protein kinase Src; assay: Binding affinity for Src protein tyrosine kinase SH2 domain using fluorescence polarization assay with 20% DMSO in buffer solution
# [4] = target: T1, Proto-oncogene tyrosine-protein kinase Src; assay: Binding affinity for Src protein tyrosine kinase SH2 domain
# T1 sequence (P12931 2-536 limits assumed): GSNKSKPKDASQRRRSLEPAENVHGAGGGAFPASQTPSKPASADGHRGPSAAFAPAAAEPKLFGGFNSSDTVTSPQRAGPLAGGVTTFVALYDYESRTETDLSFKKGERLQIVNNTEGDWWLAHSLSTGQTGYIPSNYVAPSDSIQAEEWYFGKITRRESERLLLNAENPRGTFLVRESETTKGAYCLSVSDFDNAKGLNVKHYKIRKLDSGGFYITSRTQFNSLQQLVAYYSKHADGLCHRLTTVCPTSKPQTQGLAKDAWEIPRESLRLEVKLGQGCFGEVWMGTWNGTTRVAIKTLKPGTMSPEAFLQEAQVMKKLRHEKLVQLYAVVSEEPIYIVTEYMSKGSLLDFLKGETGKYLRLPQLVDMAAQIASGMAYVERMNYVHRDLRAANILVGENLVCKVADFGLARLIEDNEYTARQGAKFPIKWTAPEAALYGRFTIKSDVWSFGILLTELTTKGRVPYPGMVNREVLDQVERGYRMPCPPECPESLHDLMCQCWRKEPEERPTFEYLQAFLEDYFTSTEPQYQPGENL
Compound,IC50 [2],other results
CC(=O)N[C@@H](Cc1ccc(OP(=O)(O)O)cc1)C(=O)N[C@H]1CSCCN(Cc2ccc(-c3ccccc3)cc2)C1=O,,IC50 [1]: 0.09 µM
COc1ccc(C2Sc3ccccc3N(CC(=O)NCc3cccc4ccccc34)C(=O)C2NC(=O)c2ccc3c(Cl)c(OP(=O)(O)OCc4ccccc4)ccc3c2)cc1 (stereo not drawn),27 µM,
COc1ccc(C2Sc3ccccc3N(CC(=O)NCc3cccc4ccccc34)C(=O)C2NC(=O)Cc2ccc(OP(=O)(O)OCc3ccccc3)cc2)cc1 (stereo not drawn),5 µM,
COc1ccc(C2Sc3ccccc3N(CC(=O)Nc3cccc(Oc4ccccc4)c3)C(=O)C2NC(=O)[C@H](Cc2ccc(OP(=O)(O)OCc3ccccc3)cc2)NC(=O)OC(C)(C)C)cc1 (stereo partly drawn),14.2 µM,
COc1ccc(C2Sc3ccccc3N(CC(=O)NCc3cccc4ccccc34)C(=O)C2NC(=O)c2ccc(OP(=O)(O)OCc3ccccc3)cc2)cc1 (stereo not drawn),20 µM,
CC(=O)N[C@@H](Cc1ccc(OP(=O)(O)O)cc1)C(=O)N[C@H]1CSCCN(Cc2cccc(-c3ccccc3C#N)c2)C1=O,,IC50 [1]: 0.3 µM
COc1ccc(C2Sc3ccccc3N(CC(=O)NCc3cccc4ccccc34)C(=O)C2NC(=O)CCc2ccc(OP(=O)(O)OCc3ccccc3)cc2)cc1 (stereo not drawn),339 µM,
COc1ccc(C2Sc3ccccc3N(Cc3ccccc3)C(=O)C2NC(=O)[C@H](Cc2ccc(OP(=O)(O)OCc3ccccc3)cc2)NC(=O)OC(C)(C)C)cc1 (stereo partly drawn),46 µM,
COc1ccc(C2Sc3ccccc3N(CC(=O)Nc3ccccc3OC)C(=O)C2NC(=O)[C@H](Cc2ccc(OP(=O)(O)OCc3ccccc3)cc2)NC(=O)OC(C)(C)C)cc1 (stereo partly drawn),95 µM,
COc1ccc(C2Sc3ccccc3NC(=O)C2NC(=O)[C@H](Cc2ccc(OP(=O)(O)OCc3ccccc3)cc2)NC(=O)OC(C)(C)C)cc1 (stereo partly drawn),873 µM,
CC(=O)N[C@@H](Cc1ccc(OP(=O)(O)O)cc1)C(=O)N[C@H]1CSCCN(Cc2cccc(OC(F)(F)F)c2)C1=O,0.4 µM,
COc1ccc(C2Sc3ccccc3N(C(C(=O)Nc3cccc4ccccc34)c3ccccc3)C(=O)C2NC(=O)[C@H](Cc2ccc(OP(=O)(O)OCc3ccccc3)cc2)NC(=O)OC(C)(C)C)cc1 (stereo partly drawn),23 µM,
COC(=O)c1cccc(CN2CCSC[C@H](NC(=O)[C@H](Cc3ccc(OP(=O)(O)O)cc3)NC(C)=O)C2=O)c1,,IC50 [1]: 0.13 µM
COc1ccc(C2Sc3ccccc3N(Cc3ccc(-c4ccccc4C(=O)OC(C)(C)C)cc3)C(=O)C2NC(=O)[C@H](Cc2ccc(OP(=O)(O)OCc3ccccc3)cc2)NC(=O)OC(C)(C)C)cc1 (stereo partly drawn),18 µM,
CC(C)(C)OC(=O)N[C@@H](Cc1ccc(OP(=O)(O)OCc2ccccc2)cc1)C(=O)NC1CSc2ccccc2N(CCCC2CCCCC2)C1=O (stereo partly drawn),26 µM,IC50 [3]: 87 µM; IC50 [4]: 13 µM
CC[C@H](C)[C@H](NC(=O)[C@H](CCC(=O)O)NC(=O)[C@H](CCC(=O)O)NC(=O)[C@@H](N)Cc1ccc(OP(=O)(O)O)cc1)C(=O)O,6.5 µM,IC50 [3]: 5 µM; IC50 [4]: 0.15 µM
CC(=O)N[C@@H](Cc1ccc(OP(=O)(O)O)cc1)C(=O)N[C@H]1CSCCN(CC(=O)c2ccc(N(C)C)cc2)C1=O,,IC50 [1]: 9.3 µM

Compound,IC50 [2],other results
COc1ccc(C2Sc3ccccc3N(CCCC3CCCCC3)C(=O)C2NC(=O)[C@H](Cc2ccc(OP(=O)(O)OCc3ccccc3)cc2)NC(=O)OC(C)(C)C)cc1 (stereo partly drawn),6.4 µM,IC50 [3]: 28 µM; IC50 [4]: > 100 µM
COc1ccc(C2Sc3ccccc3N(CC(=O)Nc3ccc(Oc4ccccc4)cc3)C(=O)C2NC(=O)[C@H](Cc2ccc(OP(=O)(O)OCc3ccccc3)cc2)NC(=O)OC(C)(C)C)cc1 (stereo partly drawn),29 µM,
CC(=O)N[C@@H](Cc1ccc(OP(=O)(O)O)cc1)C(=O)N[C@H]1CSCCN(Cc2cccc(C(=O)c3ccccc3)c2)C1=O,1.6 µM,
COc1ccc(C2Sc3ccccc3N(CC(=O)NCc3cccc4ccccc34)C(=O)C2NC(=O)c2ccc3cc(OP(=O)(O)OCc4ccccc4)ccc3c2)cc1 (stereo not drawn),23 µM,
CC(=O)N[C@@H](Cc1ccc(OP(=O)(O)O)cc1)C(=O)N[C@H]1CSCCN(Cc2ccc3c(c2Cl)OCO3)C1=O,,IC50 [1]: 1.2 µM
CC(C)(C)OC(=O)N[C@H](Cc1ccc(OP(=O)(O)O)cc1)C(=O)NC1CSc2ccccc2N(CCCC2CCCCC2)C1=O (stereo partly drawn),422 µM,IC50 [4]: 18 µM
CC(C)(C)OC(=O)N[C@@H](Cc1ccc(OP(=O)(O)O)cc1)C(=O)NC1CSc2ccccc2N(CCCC2CCCCC2)C1=O (stereo partly drawn),10 µM,IC50 [3]: 11 µM; IC50 [4]: 1 µM
COc1ccc(C2Sc3ccccc3N(CC(=O)NCc3cccc4ccccc34)C(=O)C2NC(=O)c2cc3cc(OP(=O)(O)OCc4ccccc4)ccc3[nH]2)cc1 (stereo not drawn),32 µM,
CC(C)(C)OC(=O)N[C@@H](Cc1ccc(OP(=O)(O)O)cc1)C(=O)NC1CSCCN(CCCC2CCCCC2)C1=O (stereo partly drawn),115 µM,IC50 [4]: 1.4 µM
CC(=O)N[C@@H](Cc1ccc(OP(=O)(O)O)cc1)C(=O)N[C@H]1CSCCN(Cc2cccc(C(F)(F)F)c2)C1=O,1.6 µM,
COc1ccc(C2Sc3ccccc3N(CC(=O)NCc3cccc4ccccc34)C(=O)C2NC(=O)[C@H](Cc2ccc(OP(=O)(O)OCc3ccccc3)cc2)NC(=O)OC(C)(C)C)cc1 (stereo in doubt; 3a),128 µM,
COc1ccc(C2Sc3ccccc3N(CC(=O)NCc3cccc4ccccc34)C(=O)C2NC(=O)[C@H](Cc2ccc(OP(=O)(O)OCc3ccccc3)cc2)NC(=O)OC(C)(C)C)cc1 (stereo in doubt; 3b),118 µM,
COc1ccc(C2Sc3ccccc3N(CC(=O)Nc3cccc4ccccc34)C(=O)C2NC(=O)[C@H](Cc2ccc(OP(=O)(O)OCc3ccccc3)cc2)NC(=O)OC(C)(C)C)cc1 (stereo in doubt; 3c),189 µM,
COc1ccc(C2Sc3ccccc3N(CC(=O)Nc3cccc4ccccc34)C(=O)C2NC(=O)[C@H](Cc2ccc(OP(=O)(O)OCc3ccccc3)cc2)NC(=O)OC(C)(C)C)cc1 (stereo in doubt; 3l),133 µM,
COc1ccc(C2Sc3ccccc3N(CC(=O)Nc3cccc4ccccc34)C(=O)C2NC(=O)[C@H](Cc2ccc(OP(=O)(O)OCc3ccccc3)cc2)NC(=O)OC(C)(C)C)cc1 (stereo in doubt; 3m),26 µM,
COc1ccc(C2Sc3ccccc3N(CC(=O)Nc3cccc4ccccc34)C(=O)C2NC(=O)[C@H](Cc2ccc(OP(=O)(O)OCc3ccccc3)cc2)NC(=O)OC(C)(C)C)cc1 (stereo in doubt; 3n),23 µM,
